Assay results from patent US20050065194A1, “Methods of treating conditions associated with an Edg-2 receptor” (priority 2003, published 2005).

Assays:
Edg 5 receptor = biological target: T1, Edg 5 receptor (Homo sapiens, UniProt O95136); assay: LPA/S1P-stimulated calcium mobilization assay (FLIPR), HTC cells expressing Edg 5; assay type: cell-based; conditions: for inhibition of S1P-stimulated calcium increases: FIG. 1 / FIG. 2
T1 construct: expressed in transfected cells; host or cells: HTC (rat hepatoma) cells
T1 sequence (O95136 whole entry): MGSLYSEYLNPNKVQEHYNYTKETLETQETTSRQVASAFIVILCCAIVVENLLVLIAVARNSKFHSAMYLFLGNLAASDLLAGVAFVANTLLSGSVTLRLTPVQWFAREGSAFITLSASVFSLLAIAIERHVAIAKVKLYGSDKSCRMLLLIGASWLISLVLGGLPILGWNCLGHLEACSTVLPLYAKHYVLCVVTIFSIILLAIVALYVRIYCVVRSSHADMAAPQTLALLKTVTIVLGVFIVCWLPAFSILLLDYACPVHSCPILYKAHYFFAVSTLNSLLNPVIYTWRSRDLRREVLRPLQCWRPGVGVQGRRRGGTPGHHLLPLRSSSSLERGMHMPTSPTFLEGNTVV

[1] = tested on: various targets tested, including other GPCRs, ion channels, and enzymes; assay: Pharmacology profiling (selectivity assays), panel of non-Edg targets of Table 2; assay type: binding; conditions: all targets listed in Table 2 (bradykinin, CB2, chemokine, dopamine, histamine, muscarinic, NPY, opiate, prostanoid, purinergic, serotonin, sigma, sodium channel, tachykinin, growth factors etc.)
[2] = tested on: Serotonin 5-HT1, non-selective; conditions: significance criteria ≧50% of max stimulation or inhibition; Table 2
Experimental: (§1) In order to test the selectivity of compounds, various radioligand binding assays were performed using numerous non-Edg receptor targets as listed below.
(§2) A radioligand binding assay was performed using adrenergic α1 according to the method of Greengrass and Bremner 1979, Eur. J. Pharmacol. 55:323-326. A radioligand binding assay was performed using adrenergic α2 according to the method of Boyajian and Leslie, 1987, J. Pharmacol. Exp. Ther. 241:1092-1098. A radioligand binding assay was performed using adrenergic β according to the method of Feve et al., 1994, Proc. Natl. Acad. Sci USA 91:5677-5681. A radioligand binding assay was performed using angiotensin AT2 according to the method of Whitebread et al., 1991, Biochem. Biophys. Res. Comm. 181:1365-1371. A radioligand binding assay was performed using calcium channel Type L, dihydropyridine according to the method of Ehlert et al., 1982, Life Sci. 30:2191-2202. A radioligand binding assay was performed using dopamine D2L according to the method of Bunzo et al., 1988, Nature 336:783-787. A radioligand binding assay was performed using endothelin ETA according to the method of Mihara et al., 1994, J. Pharmacol. Exp Ther. 268:1122-1127. A radioligand binding assay was performed using histamine H1 Central according to the method of Hill et al., 1978, J. Neurochem. 31:997-1004. A radioligand binding assay was performed using Muscarinic non-selective, Central according to the method of Luthin and Wolfe, 1984, J. Pharmacol. Exp. Ther. 228:648-655. A radioligand binding assay was performed using serotonin 5-HT1, non-selective according to the method of Middlemiss, 1984, Eur. J. Pharmacol. 101:289-293).

Angiotensin AT2 = Angiotensin AT2 (Homo sapiens, UniProt P50052); conditions: significance criteria ≧50% of max stimulation or inhibition; Table 2
Angiotensin AT2, sequence (P50052 whole entry): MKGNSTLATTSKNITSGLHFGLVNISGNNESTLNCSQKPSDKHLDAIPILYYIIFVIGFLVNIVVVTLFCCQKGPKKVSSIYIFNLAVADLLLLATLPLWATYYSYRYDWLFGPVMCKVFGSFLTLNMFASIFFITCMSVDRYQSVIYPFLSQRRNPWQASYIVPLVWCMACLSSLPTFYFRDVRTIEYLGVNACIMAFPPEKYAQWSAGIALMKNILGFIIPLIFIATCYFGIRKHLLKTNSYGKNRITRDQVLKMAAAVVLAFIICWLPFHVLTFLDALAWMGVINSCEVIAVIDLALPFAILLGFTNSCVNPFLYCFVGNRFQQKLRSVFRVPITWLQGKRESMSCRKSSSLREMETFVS
Experimental: as §1, §2

Endothelin ETA = Endothelin ETA (Homo sapiens, UniProt P25101); conditions: significance criteria ≧50% of max stimulation or inhibition; Table 2
Endothelin ETA, sequence (P25101 21-427): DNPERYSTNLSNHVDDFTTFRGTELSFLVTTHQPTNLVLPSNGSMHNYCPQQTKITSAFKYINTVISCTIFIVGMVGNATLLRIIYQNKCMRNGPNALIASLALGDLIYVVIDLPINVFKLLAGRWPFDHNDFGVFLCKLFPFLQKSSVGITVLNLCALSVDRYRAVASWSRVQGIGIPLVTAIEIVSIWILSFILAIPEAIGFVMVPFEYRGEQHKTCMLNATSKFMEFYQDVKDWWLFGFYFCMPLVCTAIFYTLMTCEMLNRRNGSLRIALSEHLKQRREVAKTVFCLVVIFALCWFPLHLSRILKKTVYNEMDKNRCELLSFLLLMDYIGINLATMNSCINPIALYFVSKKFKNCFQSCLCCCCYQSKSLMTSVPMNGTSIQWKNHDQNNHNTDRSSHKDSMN
Experimental: as §1, §2

[3] = tested on: Muscarinic non-selective, Central; conditions: significance criteria ≧50% of max stimulation or inhibition; Table 2
Experimental: as §1, §2

Histamine H1, Central = Histamine H1, Central (Cavia porcellus, UniProt P31389); conditions: significance criteria ≧50% of max stimulation or inhibition; Table 2
Histamine H1, Central, sequence (P31389 whole entry): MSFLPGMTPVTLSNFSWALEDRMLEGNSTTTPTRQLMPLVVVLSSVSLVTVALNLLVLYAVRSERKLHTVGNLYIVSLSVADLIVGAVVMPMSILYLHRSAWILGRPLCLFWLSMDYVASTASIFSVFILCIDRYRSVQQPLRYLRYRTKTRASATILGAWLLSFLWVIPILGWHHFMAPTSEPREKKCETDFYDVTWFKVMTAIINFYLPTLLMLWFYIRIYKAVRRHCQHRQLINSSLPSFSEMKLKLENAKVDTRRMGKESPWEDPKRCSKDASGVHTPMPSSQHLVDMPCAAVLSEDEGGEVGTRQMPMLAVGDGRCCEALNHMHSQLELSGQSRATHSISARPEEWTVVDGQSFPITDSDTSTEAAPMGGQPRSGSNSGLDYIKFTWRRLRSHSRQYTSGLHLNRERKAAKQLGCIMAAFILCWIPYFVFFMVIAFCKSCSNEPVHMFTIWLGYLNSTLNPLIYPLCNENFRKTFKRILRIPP
Experimental: as §1, §2

[4] = tested on: Adrenergic α1, non-selective; conditions: significance criteria ≧50% of max stimulation or inhibition; Table 2
Experimental: as §1, §2

Adrenergic α2 = conditions: significance criteria ≧50% of max stimulation or inhibition; Table 2
Experimental: as §1, §2

Adrenergic β = conditions: significance criteria ≧50% of max stimulation or inhibition; Table 2
Experimental: as §1, §2

Dopamine D2L = Dopamine D2L (Homo sapiens, UniProt P14416); conditions: significance criteria ≧50% of max stimulation or inhibition; Table 2
Dopamine D2L, sequence (P14416 whole entry): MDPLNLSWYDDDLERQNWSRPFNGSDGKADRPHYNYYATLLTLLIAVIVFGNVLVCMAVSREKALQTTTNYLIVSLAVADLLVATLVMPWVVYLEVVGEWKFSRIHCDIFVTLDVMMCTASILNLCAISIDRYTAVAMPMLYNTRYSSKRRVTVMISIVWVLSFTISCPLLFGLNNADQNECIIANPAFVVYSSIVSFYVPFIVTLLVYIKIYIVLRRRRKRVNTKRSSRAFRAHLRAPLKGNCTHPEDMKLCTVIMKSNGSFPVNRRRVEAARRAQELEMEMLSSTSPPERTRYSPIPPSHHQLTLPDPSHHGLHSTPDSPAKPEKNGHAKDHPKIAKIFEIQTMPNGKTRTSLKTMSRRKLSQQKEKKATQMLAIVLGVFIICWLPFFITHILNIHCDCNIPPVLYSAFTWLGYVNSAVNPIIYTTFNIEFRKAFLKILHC
Experimental: as §1, §2

[5] = tested on: Calcium Channel Type L, Dihydropyridine; conditions: significance criteria ≧50% of max stimulation or inhibition; Table 2
Experimental: as §1, §2

Edg 1 receptor = biological target: T2, Edg 1 receptor (Homo sapiens, UniProt P21453); assay: LPA/S1P-stimulated calcium mobilization assay (FLIPR), HTC cells expressing Edg 1; assay type: cell-based; conditions: for inhibition of S1P-stimulated calcium increases: FIG. 1 / FIG. 2
T2 construct: expressed in transfected cells; host or cells: HTC (rat hepatoma) cells
T2 sequence (P21453 whole entry): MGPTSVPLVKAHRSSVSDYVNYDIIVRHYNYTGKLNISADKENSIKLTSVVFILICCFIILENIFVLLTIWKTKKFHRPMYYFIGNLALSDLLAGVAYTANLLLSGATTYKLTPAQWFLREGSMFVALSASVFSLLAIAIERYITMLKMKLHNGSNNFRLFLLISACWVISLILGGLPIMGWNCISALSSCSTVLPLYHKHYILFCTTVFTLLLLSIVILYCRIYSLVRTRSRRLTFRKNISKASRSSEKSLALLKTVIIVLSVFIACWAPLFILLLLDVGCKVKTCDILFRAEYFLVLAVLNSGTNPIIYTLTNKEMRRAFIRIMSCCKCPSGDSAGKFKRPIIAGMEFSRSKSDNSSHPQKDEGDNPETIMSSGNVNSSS

Edg-2 receptor = biological target: T3, Edg-2 receptor (Homo sapiens, UniProt Q92633); assay: LPA/S1P-stimulated calcium mobilization assay (FLIPR), HTC cells expressing Edg 2; assay type: cell-based; conditions: for inhibition of the Edg 2 receptor: FIG. 1 / FIG. 2; for IC50: HTC cells expressing Edg 2; for Fold Selective: selectivity for Edg-2 relative to other Edg receptors
T3 construct: expressed in transfected cells
T3 sequence (Q92633 whole entry): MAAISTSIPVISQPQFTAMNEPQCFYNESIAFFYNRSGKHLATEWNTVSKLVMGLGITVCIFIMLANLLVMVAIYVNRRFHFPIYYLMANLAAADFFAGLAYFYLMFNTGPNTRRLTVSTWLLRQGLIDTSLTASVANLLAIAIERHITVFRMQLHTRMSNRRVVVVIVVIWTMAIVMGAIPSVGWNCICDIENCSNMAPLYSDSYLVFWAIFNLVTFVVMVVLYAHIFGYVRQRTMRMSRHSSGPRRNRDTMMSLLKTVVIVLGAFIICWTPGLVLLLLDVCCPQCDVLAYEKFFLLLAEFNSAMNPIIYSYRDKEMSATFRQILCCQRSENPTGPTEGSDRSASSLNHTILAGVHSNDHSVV
Description: Specific assays for Edg-2 receptor activity are known to those of skill in the art. For example, cells expressing Edg-2 receptors can be contacted with a membrane-permeant calcium sensitive dye such as Fluo-4 AM or a proprietary calcium dye loading kit (e.g., FLIPR Calcium Assay kit, Molecular Devices, Sunnyvale, Calif.). Intracellular calcium is capable of binding to the dye and emitting fluorescent radiation when illuminated at the appropriate wavelength. The cells can thus be illuminated an appropriate wavelength for the dye and any emitting light can be captured by a cooled CCD camera. Changes in fluorescence indicate changes in intracellular calcium resulting from the activation of an Edg-2 receptor. Such changes can be measured advantageously in whole cells in “real-time” (Berridge et al., Nature Reviews 2000, 1:11-21).
LPA receptors such as Edg-2, couple to calcium effector pathways, and result in increases in intracellular calcium following receptor activation (An, 1998, J. Cell. Biochem. Supp., 30-31: 147-157). This biological response lends itself to a very efficient, high-throughput screen using a Fluorescence Imaging Plate Reader (FLIPR; Molecular Devices, Sunnyvale, Calif.). The FLIPR system is a real-time, cell-based assay system with continuous fluorescence detection using a cooled CCD camera. The FLIPR system was used to developing an Edg-2 receptor screen. Rat hepatoma cells stably expressing Edg-2 receptor were plated on 384-well plates and loaded with a calcium dye loading kit (Molecular Devices, Sunnyvale, Calif.) for 1 hour at room temperature. Cells were then placed on the FLIPR^384 (Molecular Devices, Sunnyvale, Calif.) and excited by an argon laser at 488 nm. The data for the entire 384-well plate was updated every second. An integrated robotic pipettor allowed for simultaneous compound addition into each individual well in the plate.

Edg 3 receptor = biological target: T4, Edg 3 receptor (Homo sapiens, UniProt Q99500); assay: LPA/S1P-stimulated calcium mobilization assay (FLIPR), HTC cells expressing Edg 3; assay type: cell-based; conditions: for inhibition of S1P-stimulated calcium increases: FIG. 1 / FIG. 2
T4 construct: expressed in transfected cells; host or cells: HTC (rat hepatoma) cells
T4 sequence (Q99500 whole entry): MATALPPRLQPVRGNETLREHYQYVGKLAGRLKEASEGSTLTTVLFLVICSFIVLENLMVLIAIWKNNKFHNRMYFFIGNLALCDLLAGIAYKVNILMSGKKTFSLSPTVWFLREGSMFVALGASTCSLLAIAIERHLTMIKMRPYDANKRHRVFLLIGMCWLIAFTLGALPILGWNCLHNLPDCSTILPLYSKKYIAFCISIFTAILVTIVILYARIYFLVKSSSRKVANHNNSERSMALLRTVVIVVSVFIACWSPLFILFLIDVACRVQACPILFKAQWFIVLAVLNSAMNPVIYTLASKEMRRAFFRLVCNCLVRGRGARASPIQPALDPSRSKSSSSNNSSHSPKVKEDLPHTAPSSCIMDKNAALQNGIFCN

Edg-4 receptor = biological target: T5, Edg-4 receptor (Homo sapiens, UniProt Q9HBW0); assay: LPA/S1P-stimulated calcium mobilization assay (FLIPR), HTC cells expressing Edg 4; assay type: cell-based; conditions: for inhibition of LPA-stimulated calcium increases: FIG. 1 / FIG. 2
T5 construct: expressed in transfected cells; host or cells: HTC (rat hepatoma) cells
T5 sequence (Q9HBW0 whole entry): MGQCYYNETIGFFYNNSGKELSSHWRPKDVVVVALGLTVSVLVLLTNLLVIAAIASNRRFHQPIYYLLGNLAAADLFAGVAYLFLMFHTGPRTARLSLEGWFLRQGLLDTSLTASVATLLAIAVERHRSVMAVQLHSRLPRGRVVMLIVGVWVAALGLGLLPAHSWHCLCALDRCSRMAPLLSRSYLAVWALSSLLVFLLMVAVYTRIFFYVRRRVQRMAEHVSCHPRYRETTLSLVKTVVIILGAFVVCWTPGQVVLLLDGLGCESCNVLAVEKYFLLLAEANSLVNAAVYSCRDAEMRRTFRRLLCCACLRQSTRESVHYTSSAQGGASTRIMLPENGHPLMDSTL

Edg-7 receptor = biological target: T6, Edg-7 receptor (Homo sapiens, UniProt Q9UBY5); assay: LPA/S1P-stimulated calcium mobilization assay (FLIPR), HTC cells expressing Edg 7; assay type: cell-based; conditions: for inhibition of LPA-stimulated calcium increases: FIG. 1 / FIG. 2
T6 construct: expressed in transfected cells; host or cells: HTC (rat hepatoma) cells
T6 sequence (Q9UBY5 1-353): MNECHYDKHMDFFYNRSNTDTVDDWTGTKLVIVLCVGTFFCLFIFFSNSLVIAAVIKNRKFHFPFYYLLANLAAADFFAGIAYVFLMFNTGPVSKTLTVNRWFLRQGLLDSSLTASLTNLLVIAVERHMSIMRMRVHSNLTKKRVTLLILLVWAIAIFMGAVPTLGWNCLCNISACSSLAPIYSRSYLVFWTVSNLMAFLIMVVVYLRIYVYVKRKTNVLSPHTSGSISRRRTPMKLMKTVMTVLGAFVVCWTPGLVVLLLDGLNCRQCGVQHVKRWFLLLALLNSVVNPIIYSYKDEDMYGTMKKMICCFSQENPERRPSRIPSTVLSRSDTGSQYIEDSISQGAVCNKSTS

Edg 8 receptor = biological target: T7, Edg 8 receptor (Homo sapiens, UniProt Q9H228); assay: LPA/S1P-stimulated calcium mobilization assay (FLIPR), HTC cells expressing Edg 8; assay type: cell-based; conditions: for inhibition of S1P-stimulated calcium increases: FIG. 1 / FIG. 2
T7 construct: expressed in transfected cells; host or cells: HTC (rat hepatoma) cells
T7 sequence (Q9H228 whole entry): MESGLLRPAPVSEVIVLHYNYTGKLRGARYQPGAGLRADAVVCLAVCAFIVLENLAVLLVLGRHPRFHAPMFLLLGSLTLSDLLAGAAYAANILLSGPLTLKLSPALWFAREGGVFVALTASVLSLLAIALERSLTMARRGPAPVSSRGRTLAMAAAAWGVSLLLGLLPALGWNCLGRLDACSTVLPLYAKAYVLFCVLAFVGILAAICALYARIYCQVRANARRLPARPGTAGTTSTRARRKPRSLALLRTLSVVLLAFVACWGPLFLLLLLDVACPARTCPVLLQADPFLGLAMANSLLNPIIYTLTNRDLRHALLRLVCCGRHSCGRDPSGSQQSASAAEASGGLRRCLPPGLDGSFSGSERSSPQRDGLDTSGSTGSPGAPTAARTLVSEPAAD

[6] = tested on: immortalized ovarian surface epithelial cells; assay: LPA-stimulated calcium mobilization in immortalized ovarian surface epithelial cells; assay type: cell-based; conditions: 10 μM compound, FIG. 3
[7] = tested on: forskolin-stimulated cAMP production; assay: cAMP assay: LPA inhibition of forskolin-stimulated cAMP production; assay type: cell-based; conditions: FIG. 4
Description: Because cAMP acts a second messenger in cell signaling, activating protein kinases that in turn phosphorylate enzymes and transcription factors, cAMP concentration is frequently indicative of the activation state of downstream signaling pathways. For GPCRs like the Edg receptors, coupling via a Gαi pathway results in inhibition of adenylyl cyclase activity, the key enzyme involved in breakdown of ATP and formation of cAMP. Thus, assays can be designed to measure inhibition of adenylyl cyclase activity, by first stimulating cAMP formation. One example of a compound, which stimulates cAMP formation is forskolin. Forskolin bypasses the receptor and directly activates adenylyl cyclase. […]
This assay can be performed by any means known to one of skill in the art. […] Following an incubation period, the cells are lysed and the level of cAMP is determined.
The cAMP assay can be performed by any means known to one of skill in the art, for example, by performing a competitive immunoassay. […] Detection can be performed by any appropriate means, including, but not limited to, using a substrate solution and chemiluminescent readout.
Cells were plated in a 96 well format. […] Following a 30-minute incubation period, the cells were lysed and the level of cAMP was determined. […]
Detection was performed using a substrate solution and chemiluminescent readout. […]

Row | Structure (SMILES) | IC50 (Edg 5 receptor) | inhibition of S1P-stimulated calcium increases (Edg 5 receptor) | activity at various targets tested, including other GPCRs, ion channels, and enzymes [1] | IC50 (Edg 1 receptor) | inhibition of S1P-stimulated calcium increases (Edg 1 receptor) | inhibition of the Edg 2 receptor (Edg-2 receptor) | IC50 (Edg-2 receptor) | Fold Selective (Edg-2 receptor) | IC50 (Edg 3 receptor) | inhibition of S1P-stimulated calcium increases (Edg 3 receptor) | IC50 (Edg-4 receptor) | inhibition of LPA-stimulated calcium increases (Edg-4 receptor) | IC50 (Edg-7 receptor) | inhibition of LPA-stimulated calcium increases (Edg-7 receptor) | IC50 (Edg 8 receptor) | inhibition of S1P-stimulated calcium increases (Edg 8 receptor) | inhibition of LPA-stimulated calcium mobilization [6] | reversal of the inhibitory effects of LPA on forskolin-stimulated cAMP production [7] | other results
1 | CCOc1ccccc1N1C(=O)CC(N(O)c2ccccc2)C1=O (centres unmarked) [Compound 101, 1-(2-Ethoxyphenyl)-3-(hydroxyphenylamino)-pyrrolidine-2,5-dione] | > 20 µM | did not inhibit | did not demonstrate any significant activity | > 20 µM | did not inhibit | specifically inhibit | 1.63 µM | >12.3 Fold | > 20 µM | did not inhibit | > 20 µM | did not inhibit | > 20 µM | did not inhibit | > 20 µM | did not inhibit |  |  | activity in radioligand binding assay, Serotonin 5HT1 non-selective [2]: no significant activity; activity in radioligand binding assay, Angiotensin AT2 (Angiotensin AT2): no significant activity; activity in radioligand binding assay, Endothelin ETA (Endothelin ETA): no significant activity; activity in radioligand binding assay, Muscarinic, non-selective, central [3]: no significant activity; activity in radioligand binding assay, H1 central (Histamine H1, Central): no significant activity; activity in radioligand binding assay, Adrenergic Alpha 1, non-selective [4]: no significant activity; activity in radioligand binding assay, Adrenergic Alpha 2, non-selective (Adrenergic α2): no significant activity; activity in radioligand binding assay, Adrenergic Beta, non-selective (Adrenergic β): no significant activity; activity in radioligand binding assay, Dopamine D2L (Dopamine D2L): no significant activity; activity in radioligand binding assay, Calcium Channels Type L, DHP [5]: no significant activity
2 | CCn1nc(C)c(-c2ccccc2O)c1-c1ccccc1 [Compound 103, 2-(1-Ethyl-3-methyl-5-phenyl-1H-pyrazol-4-yl)-phenol] | > 20 µM | did not inhibit | did not demonstrate any significant activity | > 20 µM | did not inhibit | specifically inhibited | 0.51 µM | >39.3 Fold | > 20 µM | did not inhibit | > 20 µM | did not inhibit | > 20 µM | did not inhibit | > 20 µM | did not inhibit | almost completely inhibited | reverses the inhibitory effects of LPA | 
3 | CCOc1ccccc1N1C(=O)CC(N(O)c2ccc(F)cc2)C1=O (centres unmarked) [Compound 111, 1-(2-Ethoxyphenyl)-3-[(4-fluorophenyl)hydroxylamino]pyrrolidine-2,5-dione] |  |  |  |  |  |  |  |  |  |  |  |  |  |  |  |  |  |  | melting point: 123 to 124 °C
4 | O=C(CC(=O)C(F)(F)F)Nc1cc(-c2ccccc2)n[nH]1 [Compound 201, 4,4,4-trifluoro-3-oxo-N-(5-phenyl-2H-pyrazol-3-yl)-butyramide, reference compound] |  |  |  |  |  |  |  |  |  |  |  |  |  |  |  |  | little to no effect | little to no effect | 
